Assay results from US20060135765A1, “Antineoplastic ether lipid compounds” (priority 2003, published 2006).
Where “and” joins values, the source holds several entries; their conditions need not be identical. Equal entries are not always repeated. Where two headings read alike, the source gives them in different places. One block for each compound: values may come before it.

Columns and labels:
[1] = test system: platelets in dog whole blood; assay: Platelet aggregation in dog whole blood (whole blood aggregometer)
Experimental: Briefly, whole citrated blood is diluted 1:2 with sterile saline and placed in a warm chamber with a mini stir bar. An electronic probe, measuring electrical resistance, is inserted in the sample. The aggregometer is calibrated and the baseline is observed to detect any spontaneous aggregation. The test sample is added and allowed to run for at least 6 minutes. If the sample is an agonist the platelets will start to aggregate and stick to the electronic probe causing resistance across the electrodes to increase. This resistance, in ohms, is measured 6 minutes post addition of sample. The test samples are run at 25, 100, 200, 400 and 800 uM and compared to 100 uM L-ET-18-OCH3.
Collection of Blood Sample for in vitro Platelet Aggregation Testing: Venous blood is collected in 4.5 mL Vacutainer tubes containing 0.129 M sodium citrate using a 21G needle or larger. Blood is immediately mixed by gentle inversion 15-20 times and kept at room temperature. Dilution ratio is 1 to 9 (3.8% citrate solution:blood). One (2.0 mL) Vacutainer tube containing EDTA is also collected for platelet counts. Complete blood counts (CBC) are measured on the CDC Technologies Hemavet 1500 to ensure that the test subject's platelets are within normal range. Any vials of hemolytic blood or blood containing any clots should be discarded. Platelet aggregation testing must be completed within 3 hours of blood collection. After this time the ability of platelets to aggregate decreases.
Cloudy solutions were warmed to 50° C. to dissolve and particles. Dilutions were prepared in PBS or saline at 40× concentration. (25 uL test sample are added to 1000 uL diluted blood (1:40)).
Procedure for in vitro Platelet Aggregation Test using CH NO-LOG Aggregometer Model 560-CA: The following protocol was used:

WI38 = assay: In vitro growth inhibition (SRB), WI-38 normal fibroblasts; format: cell-based, human; settings: WI38 normal cell line; 3 days
From the text: (§1) III. In Vitro Growth Inhibition (GI50) A. Cell line maintenance The following cell lines were selected from the cell bank for screening and GI50 studies: MCF-7: human breast tumor, MCF-7/ADR: MCF-7 adriamycin resistant subline, HT-29: human colon carcinoma, A-549: human non-small cell lung cancer, NIH-3T3: mouse Swiss embryo fibroblast and WI-38: human lung fibroblast, SKMEL-28: human melanoma, Lewis Lung: mouse lung carcinoma, DU-145: prostate carcinoma, B16F10: mouse melanoma, L1210: murine lymphocytic leukemia, P-388: murine leukemia, U-937: human histolytic lymphoma. Except HT-29, WI-38, NIH-3T3 and Lewis Lung which were obtained from the American Type Culture Collection (Rockville, Md.) all the other cell lines were obtained from National Cancer Institute—Frederick Research Facility (Frederick, Md.). […]
(§2) The test compounds were made in-house and the compounds were dissolved PBS or saline at a stock concentration of approximately 20 mM, which is 400 times the desired final maximum test concentration. […] After 3 days of incubation, cell growth was determined.
The SRB assay was performed as described by Monks, A., Scudiero, D., Skehan, P., Shoemaker, R., Paull, K., Vistica, D., Hose, C., Langley, J., Cronise, P., and Vaigro-Wolff, A. Feasibility of a high-flux anticancer drug screen using a diverse panel of cultured human tumor cell lines. […] Bound SRB was solubilized with Tris buffer (10 mM), and the ODs were read using an automated plate reader (Bio-Rad, Model 3550-UV) at 490 nm. Background values were subtracted from the test data, and the data was calculated as a % of control. […] Percentage growth was calculated as described by Peters, A. C, Ahmad, L, Janoff, A. S., Pushkareva, M. Y., and Mayhew, E. Growth Inhibitory efects of liposome-associated 1-o-octadecyl-2-o-metlryl-sn-glycero-3-phosphocholine. […]

NIH-3T3 = assay: In vitro growth inhibition (SRB), NIH-3T3 normal fibroblasts; format: cell-based, mouse; settings: NIH-3T3 normal cell line; 3 days
From the text: as §1, with “lymphoma.” for “lymphoma. Except HT-29, WI-38, NIH-3T3 and Lewis Lung which were obtained from the American Type Culture Collection (Rockville, Md.) all the other cell lines were obtained from National Cancer Institute—Frederick Research Facility (Frederick, Md.).”
as §2
(§3) The SRB assay was performed as described by Monks, A., Scudiero, D., Skehan, P., Shoemaker, R., Paull, K., Vistica, D., Hose, C., Langley, J., Cronise, P., and Vaigro-Wolff, A. Feasibility of a high-flux anticancer drug screen using a diverse panel of cultured human tumor cell lines. […] Bound SRB was solubilized with Tris buffer (10 mM), and the ODs were read using an automated plate reader (Bio-Rad, Model 3550-UV) at 490 nm. Background values were subtracted from the test data, and the data was calculated as a % of control. […]

HT29 = assay: In vitro growth inhibition (SRB), HT29; format: cell-based, human; settings: HT29 tumor cell line; 3 days
From the text: as §1, with “lymphoma.” for “lymphoma. Except HT-29, WI-38, NIH-3T3 and Lewis Lung which were obtained from the American Type Culture Collection (Rockville, Md.) all the other cell lines were obtained from National Cancer Institute—Frederick Research Facility (Frederick, Md.).”
as §2, §3

A549 = assay: In vitro growth inhibition (SRB), A549; format: cell-based, human; settings: A549 tumor cell line; 3 days
From the text: as §1, with “lymphoma.” for “lymphoma. Except HT-29, WI-38, NIH-3T3 and Lewis Lung which were obtained from the American Type Culture Collection (Rockville, Md.) all the other cell lines were obtained from National Cancer Institute—Frederick Research Facility (Frederick, Md.).”
as §2, §3

Whole Human Blood = assay: Hemolysis assay with whole human blood; format: cell-based
Experimental: Venous blood was collected in 10 mL Vacutainer tubes containing EDTA using a 21G needle or larger.
stock solutions of 20 mM test sample in phosphate buffered saline (PBS) were prepared as follows:
Then 270 uL of whole blood was aliquotted in duplicate mini test tubes using positive displacement pipet. Next, 30 uL of each working stock solution, in duplicate, was added to the whole blood. Next, 30 uL of PBS was added for background control. The samples were capped or sealed with Parafilm and gently mixed. The blood was incubated at 37° C. in gentle rotating water bath for 30 minutes. Final concentration of test sample was 10% of working stock solution.
Total hemolysis samples of 1% and 10% whole blood samples in deionized water were prepared as follows: 1:100=10 uL whole blood+990 uL deionized water 1:10=100 uL whole blood+900 uL deionized water
The samples were freeze thawed 3× in liquid nitrogen then water bath. The samples were then centrifuged 10 minutes at 1500 RPM. Next, 100 uL of supernatant was transferred to a cuvette and […] deionized water was added. The absorbance was read at 550 nm vs. water blank.
H10 and H50 were calculated by graphing Percent Total Hemolysis vs. Test Sample Concentration. The Percent Total Hemolysis=(average o.d of test sample)/(average o.d. of total hemolysis sample)×100

[2] = test system: DEVDase activity in Jurkat T Cells; assay: DEVDase activity in Jurkat T cells; format: cell-based
Experimental: Suspension cells were seeded at density 3.2×10^5 cells per mL in RPMI-1640 medium (Bio-Whittaker) supplemented with 10% heat inactivated FBS (Bio-Whittaker). Cells were pre-incubated overnight prior to treatment with the ether lipid compounds of the invention. At treatment time cell density was 5×10^5 cells per mL. Cells were incubated with the ether lipid compounds of the invention for various periods of time, usually 6 hours. Cells were collected, washed with 1×DPBS and resuspended in 110 μl of Buffer A (10 mM HEPES-KOH, pH 7.4, 2 mM EDTA, 0.1% CHAPS, 5 mM DTT, 1:100 dilution of protease inhibitors cocktail (SigmaYDTT and protease inhibitors should be added just before use). After 10 min incubation on ice in order to lyse cells, samples were frozen on dry ice/ethanol and kept at −20° C. until analysis. […] At the time of analysis of DEVDase activity frozen pellets were kept on ice until thawed and after vigorous vortexing samples were centrifuged at 14,000 rpm for 6 min. Supernatant was transferred into another tube and 2 μl, in triplicates, were used for protein measurement using Bradford reagent (Bio-Rad).
Measurement of DEVDase activity was carried out in 100 μl volume, where 10 μg of protein was delivered in 50 μl of Buffer A and 40 μM of substrate Ac-DEVD-AMC was also delivered in 50 μl of Buffer A. All measurements were done in triplicates. Reaction was carried out for 1 hour and generation of fluorescent product of reaction (aminomethylcoumarin) was measured by reading fluorescence at 1em 460 nm (1ex 360 nm). Changes in DEVDase activity were calculated after subtraction of background fluorescence of substrate incubated without proteins, and were expressed as percent of control (DEVDase activity in untreated cells). Average of DEVDase activity, calculated from few independent experiments, was used to calculate percent of L-ether lipid-induced DEVDase activity.

Washed Human RBCs = assay: Hemolysis assay with washed human red blood cells; format: cell-based
Experimental: Venous blood was collected in 10 mL Vacutainer tubes containing EDTA using a 21G needle or larger. […] The blood was transferred from 1 EDTA tube to a 50 mL conical tissue culture tube and the volume was brought up to 50 mL with PBS.
The blood was centrifuged for 10 minutes at 1500 RPM. The supernatant was removed and the blood was resuspended up to 50 mL with PBS. Next the blood was centrifuged for 10 minutes at 1500 RPM.
The supernatant was removed, and 2.0 mL of packed red blood cells was carefully transferred, using positive displacement pipet, into a fresh conical tissue culture tube. Next, 48 mL PBS was added to achieve a 4% washed RBC solution.
Next, 25, 50, 100 and 200 uM stock solutions of test sample in phosphate buffered saline (PBS) as follows:
Next, 0.5 mL of 4% washed RBC was added to 0.5 mL test sample dilutions (in duplicate). The final concentration of test sample was 50% of working stock solution.
The samples were capped or sealed with Parafilm and the samples were gently mixed. The blood was incubated at 37° C. in gentle rotating water bath for 30 minutes. The samples were centrifuged for 10 minutes at 1500 RPM. Next, 200 uL of supernatant was transferred to a cuvette and 1 mL deionized water was added. Absorbance was measured at 550 nm vs. a water blank. Next, H10 and H50 were determined by graphing Absorbance vs. Test Sample Concentration.

MCF7 = assay: In vitro growth inhibition (SRB), MCF7; format: cell-based, human; settings: MCF7 tumor cell line; 3 days
From the text: as §1, with “lymphoma.” for “lymphoma. Except HT-29, WI-38, NIH-3T3 and Lewis Lung which were obtained from the American Type Culture Collection (Rockville, Md.) all the other cell lines were obtained from National Cancer Institute—Frederick Research Facility (Frederick, Md.).”
as §2, §3

MCF7/ADR = assay: In vitro growth inhibition (SRB), MCF7/ADR; format: cell-based, human; settings: MCF7/ADR tumor cell line; 3 days
From the text: as §1, with “lymphoma.” for “lymphoma. Except HT-29, WI-38, NIH-3T3 and Lewis Lung which were obtained from the American Type Culture Collection (Rockville, Md.) all the other cell lines were obtained from National Cancer Institute—Frederick Research Facility (Frederick, Md.).”
as §2, §3

RPMI-8226 = assay: NCI screen, RPMI-8226; format: cell-based, human; settings: leukemia panel
Experimental: (§4) Candidates deemed suitable for in vivo testing were then synthesized in large scale quantities and some of this material was sent to the NCI's Developmental Therapeutics Program for a battery of growth inhibitory studies against various human tumor cell lines (60 cell lines, 9 different panels). The remainder of the material was used to assess in vivo efficacy using murine tumor models. Additionally, studies were conducted on the lead candidates to discern mechanism of action with particular emphasis on these agents apoptotic ability as measured by caspase 3 activity. The details (materials and methods) for these various assays are described further in the following discussion.
(§5) Ten compounds were also sent to NCT's Drug Discovery Program for screening against numerous human tumor cell lines (9 panels total: renal ovarian, colon, CNS, non-small cell lung, leukemia, breast, melanoma, and prostate). The data are shown in FIGS. 2a-i which also include data regarding D- and L-ET-18-OCH3 (listed as L-EL and D-EL in the figures).

K-562 = assay: NCI screen, K-562; format: cell-based, human; settings: leukemia panel
Experimental: as §4, §5

[3] = test system: human umbilical vein endothelial cell (HUVEC) line; assay: In vitro growth inhibition, HUVEC; format: cell-based
[4] = concentration producing 10% hemolysis
[5] = concentration producing 50% hemolysis

- platelet aggregation response (in words) [1]: no aggregation was noted
- Relative Platelet Aggregation (Ohms) ([1]; 25 μM): 0 Ohms
- Relative Platelet Aggregation (Ohms) ([1]; 100 μM): 0 Ohms
- Relative Platelet Aggregation (Ohms) ([1]; 200 μM): 0 Ohms
- Relative Platelet Aggregation (Ohms) ([1]; 400 μM): 0 Ohms
- Relative Platelet Aggregation (Ohms) ([1]; 800 μM): 0 Ohms
- GI50 (HT29): 4.8 µM
- GI50 (A549): 7.2 µM
- GI50 (MCF7): 34.8 µM
- GI50 (MCF7/ADR): > 40 µM
SMILES: CCCCCCCCCCCCCCCCCCOCC(CCP(=O)([O-])OCCC[N+](C)(C)C)OC [2(S), 3′-Trimethylaminopropyl-1-O-octadecyl-2-O-methylbutane-4-phospbonate]
- platelet aggregation response (in words) ([1]; listed as 2): did not evoke a platelet aggregation response
- GI50 (WI38): < 4 µM
- GI50 (NIH-3T3): 33.5 µM and 33.6 µM
- H10 (Whole Human Blood; [4]): 400 µM
- H50 (Whole Human Blood; [5]): >2000 µM
- % L-ET18OCH3 (DEVDase, 6 hrs) ([2]; [ether lipid] 10 μM): 57.2 ± 8.4 % L-ET18OCH3
- % L-ET18OCH3 (DEVDase, 6 hrs) ([2]; [ether lipid] 20 μM): 70.6 ± 10.8 % L-ET18OCH3
- % L-ET18OCH3 (DEVDase, 6 hrs) ([2]; [ether lipid] 30 μM): 76.8 ± 11.1 % L-ET18OCH3
- H10 (Washed Human RBCs; [4]): 14 µM and 8 µM
- H50 (Washed Human RBCs; [5]): 21 µM and 11 µM

SMILES: CCCCCCCCCCCCCCCCCCOCC(COP(=O)([O-])OCC[N+](C)(C)C)OC [D-ET18OCH3, 1-O-octadecyl-2-O-methyl-glycerophosphocholine]
- activity against RPMI-8226 (in words) (RPMI-8226): extremely poor activity
- GI50 (WI38): 10 to 13 µM
- activity against K-562 (in words) (K-562): extremely poor activity
- % L-ET18OCH3 (DEVDase, 6 hrs) ([2]; [ether lipid] 10 μM): 79.3 ± 9.7 % L-ET18OCH3
- % L-ET18OCH3 (DEVDase, 6 hrs) ([2]; [ether lipid] 20 μM): 89.2 ± 12.2 % L-ET18OCH3
- % L-ET18OCH3 (DEVDase, 6 hrs) ([2]; [ether lipid] 30 μM): 92.1 ± 11.8 % L-ET18OCH3

SMILES: CCCCCCCCCCCCCCCCCCOCC(COP(=O)([O-])OCC[N+](C)(C)C)OC [L-ET18OCH3, 1-O-octadecyl-2-O-methyl-glycerophosphocholine]
- GI50 (WI38): 10 to 12 µM
- GI50 [3]: 1.2 µM
- % L-ET18OCH3 (DEVDase, 6 hrs) ([2]; [ether lipid] 10 μM): 100 ± 8.8 % L-ET18OCH3
- % L-ET18OCH3 (DEVDase, 6 hrs) ([2]; [ether lipid] 20 μM): 100 ± 10.4 % L-ET18OCH3
- % L-ET18OCH3 (DEVDase, 6 hrs) ([2]; [ether lipid] 30 μM): 100 ± 9.3 % L-ET18OCH3
